{"source": "patent US20240226045A9", "about": "“RUMEN-PROTECTED COMPOSITIONS AND METHODS OF MAKING THE SAME” (Balchem Corporation, priority 2022, published 2024)", "key": {"[1]": {"test": "Particle size distribution of histidine hydrochloride monohydrate crystals by sieving", "format": "physicochemical", "source_text": "Histidine hydrochloride monohydrate crystals were sieved on Ro Tap equipment using a stack of US Mesh sieves to obtain a fraction ranging from 850 microns (20 US Mesh) to 250 microns (60 US Mesh) particle size. The fraction was chosen to remove very fine particles, which present a challenge to optimal microencapsulation."}, "[2]": {"test": "Methionine pellet pH test", "format": "physicochemical", "conditions": "2 hours at 39° C.", "description": "The pellets were then incubated in a pH 2.0 buffer and a pH 7.0 buffer for 2 hours at 39° C. For comparison, pellets consisting of methionine were also incubated in the buffer solutions. The results are shown in FIG. 10 and in Table 26 below."}}}
{"smiles": "Cl.N[C@@H](Cc1cnc[nH]1)C(=O)O.O", "values": [{"measurement": "Difference", "setting": "[1]; Pan, opening size <106 micron", "result": 7.41, "unit": "g"}, {"measurement": "Final (wt % of total output)", "setting": "[1]; Pan, opening size <106 micron", "result": "7.4 wt % of total output"}, {"measurement": "Final (wt % of total output)", "setting": "[1]; US mesh sieve #20, opening size 850 micron", "result": "2.6 wt % of total output"}, {"measurement": "Final (wt % of total output)", "setting": "[1]; US mesh sieve #40, opening size 425 micron", "result": "34.8 wt % of total output"}, {"measurement": "Final (wt % of total output)", "setting": "[1]; US mesh sieve #60, opening size 250 micron", "result": "33.9 wt % of total output"}, {"measurement": "Final (wt % of total output)", "setting": "[1]; US mesh sieve #80, opening size 180 micron", "result": "11.9 wt % of total output"}, {"measurement": "Final (wt % of total output)", "setting": "[1]; US mesh sieve #100, opening size 150 micron", "result": "5.3 wt % of total output"}, {"measurement": "Final (wt % of total output)", "setting": "[1]; US mesh sieve #140, opening size 106 micron", "result": "4.1 wt % of total output"}, {"measurement": "Difference", "setting": "[1]; retained on US mesh sieve #20, opening size 850 micron", "result": 2.60, "unit": "g"}, {"measurement": "Difference", "setting": "[1]; retained on US mesh sieve #40, opening size 425 micron", "result": 34.87, "unit": "g"}, {"measurement": "Difference", "setting": "[1]; retained on US mesh sieve #60, opening size 250 micron", "result": 33.99, "unit": "g"}, {"measurement": "Difference", "setting": "[1]; retained on US mesh sieve #80, opening size 180 micron", "result": 11.88, "unit": "g"}, {"measurement": "Difference", "setting": "[1]; retained on US mesh sieve #100, opening size 150 micron", "result": 5.35, "unit": "g"}, {"measurement": "Difference", "setting": "[1]; retained on US mesh sieve #140, opening size 106 micron", "result": 4.09, "unit": "g"}]}
{"smiles": "CSCC[C@H](N)C(=O)O", "note": "[Met Reference Standard (99.9% purity)]", "values": [{"measurement": "wt % Release", "setting": "[2]; 0.01M Acid Buffer, pH 2.00", "result": 99, "unit": "wt %"}, {"measurement": "wt % Release", "setting": "[2]; 0.05M Phosphate Buffer, pH 7.00", "result": 99, "unit": "wt %"}]}
